This is an account of results in patent publication US20070134744A1, “Epothilone resistant cell lines” (priority 2000, published 2007).

The structures appear in SMILES notation.

One assay deals with KB-8511 cells. The format is cell-based, human. How it is done: (§1) Data in Table 4 are gathered according to the following methods: Cells (1×10^3) are seeded in 96-well plates and allowed to adhere for 24 hrs. Compounds are then added as two-fold serial dilutions and incubation continued for an additional 72 hrs. Cell numbers at the beginning and at the end of the experiment are estimated by methylene blue staining of cellular protein mass according to conventional methods. The net mass increase of vehicle-treated cells is set as 100% growth. The IC50 is determined as the drug concentration that leads to half-maximal growth inhibition compared to the control. The resistance factor (RF) for a particular drug is calculated by dividing the IC50 determined on the resistant cell line by that determined on the parental KB-31 cells. Data are presented as average±standard deviation (SD) of three separate experiments, except na=not applicable (n<3). Colchicine-selected KB-8511 cells overexpressing P-glycoprotein served as a reference for the classical multi-drug-resistant phenotype.

The next assay deals with 297/C5/0 cells. The assay is classed as cell-based, human. To be noted: 297/C5/0 (EpoA selected), 72 hrs, average of three experiments. As for the experimental part:
(§2) Anti-proliferative assays are performed basically as described (Meyer et al., Int. J. Cancer 43:851 (1989)). Briefly, cells are seeded at 1.5×10^3 cells/well into 96-well microtiter plates and allowed to adhere by incubation overnight. Compounds are added in serial dilutions on day 1. The plates are then incubated for an additional 3 days, after which the cells are fixed with 3.3% v/v glutaraldehyde, washed with water and stained with 0.05% w/v methylene blue according to conventional methods. After washing, the dye is eluted with 3% HCl and the optical density measured at 665 nm with a SpectraMax Plus (Molecular Devices, Sunnyvale, Calif.) according to manufacturers instructions. IC50 values are determined by mathematical curve-fitting using the SoftPro2.6.1 program (Molecular Devices, Sunnyvale, Calif.) using the formula (OD treated−OD start)/(OD control−OD start)×100. […] IC50 determinations with the cell line 298/D4/40 are performed in the presence of 40 nM epothilone A.
as §1

In another assay the test system is 298/D4/40 cells. The format is cell-based, human. To be noted: 298/D4/40 (EpoA selected), 72 hrs, in the presence of 40 nM epothilone A. How it is done: as §2, §1
The next assay has as its system 315/sc5.9 cells. The format is cell-based, human. As for the experimental part: as §2, §1
The next assay concerns EA60 cells. Briefly: Cell cycle analysis by FACS. The format is cell-based. As to conditions: 24 hours, 60 nM epothilone A. How it is done:
(§3) Cells are fixed by resuspending in cold 70% ethanol, washing again with 5 ml of PBS and resuspending in PI solution ([…] propidium iodide, 38 mM sodium citrate, 20 μg/ml RNAse A). After incubation in PI solution at 37° C. for 30 minutes, cells are analyzed by flow cytometry according to conventional methodology (apparatus and software commercially available from Becton Dickinson Immunocytometry Systems, CA).
(§4) Cell cycle distribution patterns of epothilone A resistant and parental MDA-MB-435 epothilone A sensitive cells are compared by standard FACS analysis. […] Thus, a significant part of the epothilone A resistant cell population appears to overcome the G2/M block that normally occurs in the cell cycle of epothilone A sensitive cells.

In another assay the test system is MDA-MB-435 cells. Briefly: Cell cycle analysis by FACS. The format is cell-based. To be noted: 24 hours, 20 nM epothilone A. How it is done: as §3, §4
In assay [1] the target is T1, tubulin in 297/C5/0 cell lysates (Homo sapiens, UniProt P07437, T274P).
T1 construct: endogenous in cells; host or cells: 297/C5/0 and 298/D4/40 sublines of KB-31 (intact cells or hypotonic lysates)
T1 sequence (P07437 whole entry T274P): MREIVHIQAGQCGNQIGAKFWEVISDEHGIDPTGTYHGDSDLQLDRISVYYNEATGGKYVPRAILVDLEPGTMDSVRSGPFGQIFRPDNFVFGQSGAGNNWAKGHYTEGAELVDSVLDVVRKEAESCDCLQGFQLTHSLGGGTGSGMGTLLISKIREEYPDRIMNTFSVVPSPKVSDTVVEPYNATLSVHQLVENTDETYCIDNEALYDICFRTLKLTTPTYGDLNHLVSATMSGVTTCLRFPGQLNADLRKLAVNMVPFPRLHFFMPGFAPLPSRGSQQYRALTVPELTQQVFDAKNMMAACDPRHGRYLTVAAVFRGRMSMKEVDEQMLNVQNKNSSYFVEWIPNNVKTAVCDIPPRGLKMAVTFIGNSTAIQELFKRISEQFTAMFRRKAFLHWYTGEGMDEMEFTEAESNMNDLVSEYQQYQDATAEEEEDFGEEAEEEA
T1 sequence (P68363 whole entry partner): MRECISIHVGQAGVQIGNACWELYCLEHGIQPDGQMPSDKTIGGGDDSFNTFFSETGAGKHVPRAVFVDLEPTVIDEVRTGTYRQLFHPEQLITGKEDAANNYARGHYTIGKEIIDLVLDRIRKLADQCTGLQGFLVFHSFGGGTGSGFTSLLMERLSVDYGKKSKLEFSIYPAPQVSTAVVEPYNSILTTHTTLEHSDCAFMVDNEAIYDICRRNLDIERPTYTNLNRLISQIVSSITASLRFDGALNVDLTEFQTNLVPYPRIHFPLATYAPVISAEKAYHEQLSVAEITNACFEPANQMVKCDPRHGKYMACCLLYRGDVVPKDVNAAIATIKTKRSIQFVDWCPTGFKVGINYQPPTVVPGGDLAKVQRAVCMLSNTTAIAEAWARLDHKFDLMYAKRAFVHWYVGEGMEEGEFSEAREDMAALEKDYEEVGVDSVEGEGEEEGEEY
Nature of the assay: Cell-free tubulin polymerization assay. The format is biochemical. To be noted: 297/C5/0 lysates, 5 min 37° C., 0-100 μM, vs KB-31. As for the experimental part: (§5) For the assessment of drug effects on the ratio between unpolymerized and polymerized tubulin in a cell-free system, cells are lysed at the time of drug addition and processed as follows. Cells are seeded and incubated for 18-24 hrs as described above. One plate at a time is then transferred to a dimmed tissue-culture hood and cells are washed twice with 1 ml of room temperature PBS/O. After careful removal of remaining PBS/O, 200 μl of room-temperature HLB/A containing test substances at the desired concentration is added to the cells. Final vehicle concentration is 1%. The plates are wrapped in aluminum foil and incubated for 5 min at 37° C. Lysates are then transferred to eppendorf tubes, vortexed for 5 seconds, followed by centrifugation for 30 minutes at room-temperature in a table-top centrifuge at 12′000×g. Further processing of the samples is performed as described above.
(§6) However, it was not clear from this experiment whether the decrease in epothilone A-mediated tubulin polymerization is due to decreased drug uptake or a genuine defect in tubulin functionality. To address this question, cells are lysed before incubation with epothilone A. Specifically, KB-31, 297/C5/0 and 298/D4/40 cells (2×10^5) are separately seeded in 6-well plates and allowed to adhere for 24 hrs. Cells are then lysed in hypotonic buffer containing 0, 1, 10 or 100 μM epothilone A. Vehicle (DMSO) concentration was 1%. Following incubation for 5 min at 37° C., samples are centrifuged to separate soluble from polymerized tubulin and the levels of unpolymerized tubulin is assessed by Western blotting as described above.

The target of assay [2] is T2, tubulin in 298/D4/40 cell lysates (Homo sapiens, UniProt P07437, T274P).
T2 construct: endogenous in cells; host or cells: 297/C5/0 and 298/D4/40 sublines of KB-31 (intact cells or hypotonic lysates)
T2 sequence (P07437 whole entry T274P): as the sequence (P07437 whole entry T274P) above
T2 sequence (P68363 whole entry partner): as the sequence (P68363 whole entry partner) above
Nature of the assay: Cell-free tubulin polymerization assay. As to conditions: 298/D4/40 lysates, 5 min 37° C., 0-100 μM. The assay is classed as biochemical. As for the experimental part:
as §5, §6

The target of assay [3] is T3, tubulin in KB-31 cell lysates (Homo sapiens, UniProt P07437).
T3 construct: decrease in the unpolymerized pool of tubulin in KB-31 cell lysates; endogenous in cells; host or cells: KB-31 human epidermoid carcinoma cells (intact cells or hypotonic lysates)
T3 sequence (P68363 whole entry): as the sequence (P68363 whole entry partner) above
T3 sequence (P07437 whole entry): as the sequence (P07437 whole entry T274P) above, with P274T counted along it
Nature of the assay: Cell-free tubulin polymerization assay. To be noted: KB-31 lysates, 5 min 37° C., 0-100 μM. The assay is classed as biochemical. As for the experimental part: as §5, §6

Turning to `C/C(=C\c1csc(C)n1)[C@@H]1C[C@@H]2O[C@@H]2CCC[C@H](C)[C@H](O)[C@@H](C)C(=O)C(C)(C)[C@@H](O)CC(=O)O1` [Epothilone A, epothilone A], the “RF (resistance factor: IC50 resistant cell line / IC50 parental KB-31)” value worked out at 0.7 with KB-8511 cells (KB-8511 (Colch selected), 72 hrs, average of three experiments); 44.7 in the assay on 297/C5/0 cells; 71.4 in the assay on 298/D4/40 cells; 1.2 in the assay with 315/sc5.9 cells (315/sc5.9 (EpoB selected), 72 hrs, average of three experiments). Besides, the “resistance profile in words” value with KB-8511 cells (KB-8511 vs parental KB-31) is “retain full activity”; in the assay on 315/sc5.9 cells (315/sc5.9 vs parental KB-31), “marginal cross-resistance”. Further, the cell cycle distribution entry is “overcomes the G2/M phase block” in the assay with EA60 cells and “blocked at the G2/M phase” in the assay with MDA-MB-435 cells. The “dose-response curve for unpolymerized tubulin in cell lysates” value in assay [1] is “shifted to higher concentrations”. For the same compound, the “changes in unpolymerized tubulin in cell lysates” value in assay [2] was “completely refractory”. Further, the “unpolymerized tubulin in cell lysates” value in assay [3] is given as “dose-dependent decrease in the unpolymerized pool of tubulin”.
